From patent US20070105840A1, “Pyrrolo-dihydroisoquinoline derivatives as pde10 inhibitors” (Altana Pharma AG, priority 2003, published 2007)

For `CCOC(=O)c1c(-c2cc(C)c(O)c(C)c2)c(C)n2c1-c1cc(OC)c(OC)cc1CC2C` (racemic) [Example 5, (5RS)-(4-Hydroxy-3,5-dimethyl-phenyl)-8,9-dimethoxy-3,5-dimethyl-5,6-dihydro-pyrrolo[2,1-a]isoquinoline-1-carboxylic acid ethyl ester], the melting point was 158 to 161 °C. For `CCOC(=O)c1c(-c2cc(C)c(O)c(C)c2)c(C)n2c1-c1cc(OC)c(OC)cc1CC2CC` (racemic) [Example 6, (5RS)-5-Ethyl-2-(4-hydroxy-3,5-dimethyl-phenyl)-8,9-dimethoxy-3-methyl-5,6-dihydro-pyrrolo[2,1-a]isoquinoline-1-carboxylic acid ethyl ester], the melting point was 164 to 166 °C. For `CCOC(=O)c1c(-c2cc(C)c(O)c(C)c2)c(CC)n2c1-c1cc(OC)c(OC)cc1CC2C` (racemic) [Example 9, (5RS)-3-Ethyl-2-(4-hydroxy-3,5-dimethyl-phenyl)-8,9-dimethoxy-5-methyl-5,6-dihydro-pyrrolo[2,1-a]isoquinoline-1-carboxylic acid ethyl ester], the melting point was 188 to 190 °C. For `CCOC(=O)c1c(-c2cc(OC)c(OC)c(OC)c2)c(C)n2c1-c1cc(OC)c(OC)cc1CC2C` (racemic) [Example 10, (5RS)-8,9-Dimethoxy-3,5-dimethyl-2-(3,4,5-trimethoxy-phenyl)-5,6-dihydro-pyrrolo[2,1-a]isoquinoline-1-carboxylic acid ethyl ester], the melting point was 116 to 118 °C. `CCOC(=O)c1c(-c2cccc3ccccc23)c(C)n2c1-c1cc(OC)c(OC)cc1CC2C` (racemic) [Example 11, (5RS)-8,9-Dimethoxy-3,5-dimethyl-2-naphthalen-1-yl-5,6-dihydro-pyrrolo[2,1-a]isoquinoline-1-carboxylic acid ethyl ester] showed a melting point of 184 °C. Work on `CCOC(=O)c1c(-c2cccc3ccccc23)c(CCC(=O)OC)n2c1-c1cc(OC)c(OC)cc1CC2C` (racemic) [Example 20, (5RS)-8,9-Dimethoxy-3-(2-methoxycarbonyl-ethyl)-5-methyl-2-naphthalen-1-yl-5,6-dihydro-pyrrolo[2,1-a]isoquinoline-1-carboxylic acid ethyl ester] yielded a melting point of 56 to 59 °C. `CCOC(=O)c1c(-c2cc(C)c(O)c(C)c2)c(C)n2c1-c1cc(OC)c(OC)cc1C1CCCCC12` (stereo not drawn) [Example 8, (4aRS,8aRS)-cis-2-(4-hydroxy-3,5-dimethyl-phenyl)-10,11-dimethoxy-3-methyl-4a,5,6,7,8,8a-hexahydro-pyrrolo[2,1-f]phenanthridine-1-carboxylic acid ethyl ester] showed a melting point of 186 to 192 °C. Compound `CCOC(=O)c1c(-c2cccc3ccccc23)c(C)n2c1-c1cc(OC)c(OC)cc1C1CCCCC12` (stereo not drawn) [Example 12, (4aRS,8aRS)-cis-10,11-Dimethoxy-3-methyl-2-naphthalen-1-yl-4a,5,6,7,8,8a-hexahydro-pyrrolo[2,1-f]phenanthridine-1-carboxylic acid ethyl ester] has a melting point of 189 to 191 °C. `CCOC(=O)c1c(-c2ccnc3ccccc23)c(C)n2c1-c1cc(OC)c(OC)cc1C1CCCCC12` (stereo not drawn) [Example 13, (4aRS,8aRS)-cis-10,11-Dimethoxy-3-methyl-2-quinolin-4-yl-4a,5,6,7,8,8a-hexahydro-pyrrolo[2,1-f]phenanthridine-1-carboxylic acid ethyl ester] showed a melting point of 153 to 157 °C. With `CCOC(=O)c1c(-c2cc(C)c(O)c(C)c2)c(C)n2c1-c1cc(OC)c(OC)c(OC)c1CC2C` (stereo not drawn) [Example 18, (5RS)-2-(4-Hydroxy-3,5-dimethyl-phenyl)-7,8,9-bimethoxy-3,5-dimethyl-5,6-dihydro-pyrrolo[2,1-a]isoquinoline-1-carboxylic acid ethyl ester] the melting point was 144 °C. Work on `COc1cc2c(cc1OC)-c1c(C#N)c(-c3cccc4ccccc34)c(C)n1CC2` [Example 22, 8,9-Dimethoxy-3-methyl-2-naphthalen-1-yl-5,6-dihydro-pyrrolo[2,1-a]isoquinoline-1-carbonitrile] yielded a melting point of 226 to 229 °C. `COc1cc2c(cc1OC)-c1c(C#N)c(-c3ccnc4ccccc34)c(C)n1CC2` [Example 23, 8,9-Dimethoxy-3-methyl-2-quinolin-4yl-5,6-dihydro-pyrrolo[2,1-a]isoquinoline-1-carbonitrile] showed a melting point of 239 to 243 °C. For `COc1cc2c(cc1OC)-c1c(C#N)c(-c3c[nH]c4ccccc34)c(C)n1CC2` [Example 24, 2-(1H-indol-3-yl)-8,9-dimethoxy-3-methyl-5,6-dihydro-pyrrolo[2,1-a]isoquinoline-1-carbonitrile], the melting point was 304 to 307 °C. For `COc1cc2c(cc1OC)-c1c(C#N)c(-c3cc(C(C)(C)C)c(O)c(C(C)(C)C)c3)c(C)n1CC2` [Example 25, 2-(3,5-Di-tert-butyl-4-hydroxy-phenyl)-8,9-dimethoxy-3-methyl-5,6-dihydro-pyrrolo[2,1-a]isoquinoline-1-carbonitrile], the melting point was 250 to 252 °C. For `COc1cc2c(cc1OC)-c1c(C#N)c(-c3ccncc3)c(C)n1C(C)C2` (stereo not drawn) [Example 26, 8,9-Dimethoxy-3,5-dimethyl-2-pyridin-4-5,6-dihydro-pyrrolo[2,1-a]isoquinoline-1-carbonitrile], the melting point was 253 to 254 °C. Compound `COC(=O)CCc1c(-c2cc(C)c(O)c(C)c2)c(C#N)c2n1C(C)Cc1cc(OC)c(OC)cc1-2` (stereo not drawn) [Example 27, 3-[1-Cyano-2-(4-hydroxy-3,5-dimethyl)-8,9-dimethoxy-5-methyl-5,6-dihydro-pyrrolo[2,1-a]isoquinolin-3-yl]-propionic acid methyl ester] has a melting point of 208 to 209 °C. Work on `COc1cc2c(cc1OC)-c1c(C#N)c(-c3cc(C)c(O)c(C)c3)c(C)n1C(C)C2` (stereo not drawn) [Example 28, 2-(4-Hydroxy-3,5-dimethyl-phenyl)-8,9-dimethoxy-3,5-dimethy-5,6-dihydro-pyrrolo[2,1-a]isoquinoline-1-carbonitrile] yielded a melting point of 268 to 270 °C. Work on `COC(=O)CCc1c(-c2ccncc2)c(C#N)c2n1CCc1cc(OC)c(OC)cc1-2` [Example 29, 3-(1-Cyano-8,9-dimethoxy-2-pyridin-4-yl-5,6-dihydro-pyrrolo[2,1-a]isoquinolin-3-yl)-propionic acid methyl ester] yielded a melting point of 191 to 193 °C. In the case of `COc1cc2c(c(F)c1OC)CC(C)n1c(C)c(-c3cc(C)c(O)c(C)c3)c(C#N)c1-2` (stereo not drawn) [Example 30, 7-Fluoro-2-(4-hydroxy-3,5-dimethyl-phenyl)-8,9-dimethoxy-3,5-dimethyl-5,6-dihydro-pyrrolo[2,1-a]isoquinoline-1-carbonitrile], the melting point is reported as 166 to 168 °C. With `COC(=O)CCc1c(-c2ccnc3ccccc23)c(C#N)c2n1CCc1cc(OC)c(OC)cc1-2` [Example 31, 3-(1-Cyano-8,9-dimethoxy-2-quinolin-4-yl-5,6dihydro-pyrrolo[2,1-a]isoquinolin-3-yl)-propionic acid methyl ester] the melting point was 232 to 234 °C. Work on `COC(=O)CCc1c(-c2cc(C)c(O)c(C)c2)c(C#N)c2n1CCc1cc(OC)c(OC)cc1-2` [Example 32, 3-[1-Cyano-2-(4-hydroxy-3,5-dimethyl-phenyl)-8,9-dimethoxy-5,6-dihydro-pyrrolo[2,1-a]isoquinolin-3-yl]-propionic acid methyl ester] yielded a melting point of 217 to 219 °C.
